Our source for the TGI values is PubChem BioAssay (NCI).

Common to all, as to experiment: NCI-60 cell line screen, 48 h
Assay [1] relates to SF-295 CNS.
Assay [2] has as its system SNB-19 CNS.
The subject of assay [3] is SN12C renal.
The test system of assay [4] is MOLT-4 leukemia.
Assay [5] deals with M14 melanoma.
In assay [6] the test system is COLO 205 colon.
Assay [7] concerns BT-549 breast.
Assay [8] concerns UO-31 renal.
In assay [9] the test system is HCT-116 colon.
Assay [10] relates to ACHN renal.

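Five compound concentrations were applied to cells in 96-well plates for 48 hours; endpoints were derived by simple linear interpolation of the resulting dose-response curve. TGI marks complete inhibition of growth.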 *1 amine or outer side, *2 acyl side, *3 side chain or, on linkers, in order; H or OH if unused. Where a SMILES comes first, the peptide text is derived from it. Bridges are numbered along the chain shown (N, C = ends). Roman numbers before positions name the chains, in order. [ ]: non-standard residue; d: D form. Actinocin(9to1) = Cc1c2oc3c(C)ccc(C(=O)[*:1])c3nc-2c(C(=O)[*:2])c(N)c1=O; NMeV = CN[CH](C(=O)O)C(C)C; Sar = CNCC(=O)O

With `C(=C/CCCN1O[C@@H](CCCCCCCCc2cccnc2)[C@H]2CCC[C@H]21)/CCCCCCCCCc1cccnc1`, the TGI is 41.9 µM in [1]; 85 µM in assay [2]; 40.3 µM in assay [3]; 55.1 µM in [4]; 63 µM in assay [5]; 30.9 µM in [6]. Moreover, the TGI in [7] amounted to 95.7 µM; in assay [8], 40.5 µM; in assay [9] it was 40.4 µM.
Consider `Cc1ccc2nc(-c3ccccc3)cc(=O)n2c1`, for which the TGI in assay [10], in assay [1], in assay [2], in [3], in assay [4] and in [5] was above 100 µM each time. The TGI in assay [6], in assay [7] and in assay [9] was above 100 µM in each case.
In the case of `CCOC(=O)c1nnn(CCCCO)c1C(=O)OCC`, the TGI in assay [1] is above 100 µM; in assay [2], 84.5 µM; in assay [3], above 100 µM; in [4], above 100 µM; in assay [6], above 100 µM; in assay [7], above 100 µM. In addition, the TGI in assay [8] and in assay [9] was above 100 µM throughout.
For `Nc1nc(Cl)cc(OCC2(CO)CC=CC2)n1`, the TGI in [10], in assay [1], in assay [2], in [3], in assay [4] and in [9] was above 100 µM throughout.
With `CC1=NN(c2nc(N)nc(COc3ccc(N)cc3)n2)C(C)(C)C1`, the TGI in [10], in [1], in [2], in assay [4], in assay [5] and in [6] was above 100 µM in each case. Besides, the TGI in assay [7], in assay [8] and in [9] was above 100 µM each time.
Regarding `Cc1ccc(S[C@@H](C)[C@@](O)(CF)CN(Cc2ccccc2)C(=O)C(F)(F)F)cc1`, the TGI is 60.3 µM in [10]; 55 µM in assay [2]; 33.5 µM in assay [3]; 31.7 µM in assay [5]; 46.5 µM in assay [7]; 31 µM in [8]. For the same molecule, the TGI in [9] turned out to be 27.3 µM.
As to `COc1ccc(S(=O)(=O)n2c3c(c4ccccc42)[C@@H]2[C@@H](CCCN2C(=O)CS(=O)c2ccc(C)cc2)[C@H](Cl)C3)cc1` (some centres not stated), the TGI in assay [1], in [2], in assay [3], in assay [4], in [5] and in [6] was above 100 µM throughout. Also, the TGI in [7], in [8] and in assay [9] was above 100 µM each time.
In the case of `C/C(=N\NC(N)=S)c1ccc2c(c1)Sc1ccccc1O2`, the TGI is 43.7 µM in [10]; above 100 µM in assay [1]; above 100 µM in assay [2]; above 100 µM in [3]; above 100 µM in assay [4]; above 100 µM in assay [5]. Also, the figures for the TGI in [6], in assay [8] and in assay [9] were 7.28 µM, 28.3 µM and 24.3 µM, respectively.
As to `Cc1[nH]c(=O)nc2sc(=NC3CCCCC3)n(C3CCCCC3)c(=O)c12`, the TGI in assay [10], in assay [1], in [2], in assay [3], in [4] and in assay [5] was above 100 µM in each case. The TGI in [6], in assay [8] and in assay [9] was above 100 µM throughout.
Consider `COC(=O)CC(C)(NS(=O)c1ccc(C)cc1)c1ccccc1` (configuration not stated), for which the TGI in [10], in assay [1], in assay [2], in assay [3], in assay [4] and in assay [6] was above 100 µM in each case. Further, the TGI in assay [8] and in assay [9] was above 100 µM throughout.
For `CCCCCCc1cc2cc(-c3cn4ccsc4n3)c(=O)oc2cc1O`, the TGI in assay [10], in [1], in assay [2], in [3], in assay [4] and in assay [6] was above 100 µM each time. For the same molecule, the TGI in [7], in assay [8] and in [9] was above 100 µM each time.
On to `COc1cc(OCCN(C)C)c2[nH]c(C(=O)N3CC(CCl)c4ccc(N)cc43)cc2c1` (configuration not stated), for which the TGI in assay [2] is 2.59 µM; in assay [4], 0.0522 µM; in [5], 1.13 µM; in assay [6], 0.17 µM; in assay [8], 2.25 µM; in assay [9], 1.64 µM.
Consider `COc1cccc(-c2cc(=O)c3cc(N4CCCCC4)ccc3[nH]2)c1`, for which the TGI in assay [10] was above 96.6 µM; in [2], above 100 µM; in assay [3] it was above 100 µM; in assay [4], above 100 µM; in assay [5] it was above 100 µM; in [8] it was above 100 µM.
With `Cc1c2oc3c(C)ccc(C(=O)NC4C(=O)NC(C(C)C)C(=O)N5CCCC5C(=O)N(C)CC(=O)N(C)C(C(C)C)C(=O)OC4C)c3nc-2c(C(=O)NC2C(=O)NC(C(C)C)C(=O)N3CCCC3C(=O)N(C)CC(=O)N(C)C(C(C)C)C(=O)OC2C)c(N)c1=O` (configuration not stated) (I: TVP[Sar][NMeV] / II: TVP[Sar][NMeV]; ester I:1-I:C, II:1-II:C; linker I:N-II:N via Actinocin(9to1); configuration not given here), the TGI in assay [1] is 0.0687 µM; in assay [2], above 0.35 µM; in assay [3], 0.0379 µM; in [4], 0.00137 µM; in assay [5], 0.0207 µM; in assay [6] it was 0.00299 µM. In addition, the figures for the TGI in assay [7], in assay [8] and in assay [9] were 0.0292 µM, 0.12 µM and above 1 µM, respectively.
As to `Cc1cc(OC(=O)Nc2cccc3ccccc23)c(C(C)C)cc1C(=S)Nc1ccccc1`, the TGI in assay [10] is 73.5 µM; in assay [1] it was 36.8 µM; in assay [2] it was 71.3 µM; in [4], 52.4 µM; in [5], 37 µM; in assay [6] it was 39.4 µM. The TGI in [7] came out at 32.1 µM; in assay [8], 40.2 µM; in [9] it was 32.4 µM.
